The subject of one assay is Bcl-xL. The note with it: vs Bak peptide; no reference in the sentence, preceding paragraph cites ref [53]; cited from earlier work.
The target of assay [1] is T1, γHV68 v-Bcl-2 (wild-type) (Murid herpesvirus 4, UniProt P89884).
T1 construct: we expressed amino acids 1–137 of the v-Bcl-2, removing the carboxy-terminal hydrophobic domain; made in house; host or cells: E. coli BL21(DE3)
In words: NMR titration of BH3 peptides with wild-type γHV68 v-Bcl-2. The assay is classed as binding, murine γ-herpesvirus 68. To be noted: 303 K; for binding over the concentration range of the titration: pH 7.8, peptide up to 320 μM. The procedure: (§1) Wild-type and SGR/AAA v-Bcl-2 used in NMR studies were expressed in E. coli BL21(DE3) strain grown on M9 media. For wild-type v-Bcl-2, uniformly ^15N-labeled, uniformly ^15N,^13C-labeled, and uniformly ^15N,^13C-labeled, 75% ^2H samples were prepared with media containing either ^15NH4Cl, ^15NH4Cl plus [U-^13C]glucose or ^15NH4Cl, [U-^13C]glucose, and 75% ^2H2O, respectively. For SGR/AAA v-Bcl-2, a ^15N-labeled sample was prepared with media containing ^15NH4Cl as the sole nitrogen source. Soluble protein was purified by Ni^2+-affinity chromatography. NMR samples contained 0.5–1.0 mM protein in either 90% H2O with 10% ^2H2O or 100% ^2H2O, 20 mM ^2H-TRIS (pH 7.8), and 5 mM ^2H-dithiothreitol.
(§2) All NMR experiments were acquired at 303 K on a Bruker DRX500, DRX600 or DRX800 NMR spectrometer. […] Side-chain ^1H and ^13C NMR signals were assigned from HCCH-TOCSY experiments. Stereospecific assignments of valine and leucine methyl groups were obtained from an analysis of the ^13C-^13C coupling patterns observed for biosynthetically directed, fractionally ^13C-labeled γHV68 v-Bcl-2 [87]. NOE distance restraints were obtained from three-dimensional ^15N- and ^13C-edited NOESY spectra acquired with a mixing time of 80 ms. Slowly exchanging amide protons were identified in an ^15N-HSQC spectrum recorded immediately after exchanging the protein into a buffer prepared with ^2H2O.
(§3) Binding of the Bak 16-mer ([…]), the Bax 16-mer ([…]), the Bad 25-mer ([…]), and a D83A mutant Bak 16-mer ([…]) to wild-type v-Bcl-2, and binding of the Bax 16-mer to SGR/AAA v-Bcl-2 was assessed by NMR titration. Each peptide was titrated from a concentrated stock solution into a sample of ^13C-labeled protein, and binding was monitored from changes in a ^13C methyl-HSQC spectrum. For wild-type v-Bcl-2, ^13C-HSQC spectra were recorded on a uniformly ^13C,^15N-labeled protein sample (120 μM) in the presence of increasing amounts of peptide (40, 80, 160, 240, and 320 μM). For SGR/AAA v-Bcl-2, ^15N-HSQC spectra were recorded on a sample of uniformly ^15N-labeled protein in the presence of increasing amounts of peptide.

The next assay concerns KSHV v-Bcl-2. To be noted: ref [9]; cited from earlier work. An excerpt:
Each of these proteins interacts with BH3 peptides from Bak and Bax, but the viral proteins differ from the host proteins in their inability to bind the Bad BH3 peptide. […] In this property, the γHV68 and KSHV v-Bcl-2 proteins resemble cellular Mcl-1, which also fails to bind Bad BH3 peptide and is important for development of B cells, one of the cell types in which γHV68 establishes latency. One possible explanation for the lack of binding to the Bad BH3 peptide is that v-Bcl-2 binding to Bad is detrimental to the virus. Bad was recently found to be essential for assembly of a holoenzyme tha ...

The target of a further assay is Bcl-2 and Bcl-xL. To be noted: Bad BH3 peptide; ref [9]; read-out: affinity; cited from earlier work.
Assay [2] concerns the target T2, γHV68 v-Bcl-2 (wild-type) (Murid herpesvirus 4, UniProt P89884).
T2 construct: we expressed amino acids 1–137 of the v-Bcl-2, removing the carboxy-terminal hydrophobic domain; made in house; host or cells: E. coli BL21(DE3)
T2 sequence (P89884 whole entry, looked up): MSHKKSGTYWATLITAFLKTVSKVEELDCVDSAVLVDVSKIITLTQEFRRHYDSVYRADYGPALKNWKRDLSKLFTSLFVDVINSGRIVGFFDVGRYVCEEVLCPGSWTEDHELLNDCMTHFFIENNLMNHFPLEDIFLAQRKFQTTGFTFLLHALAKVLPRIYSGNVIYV
In words: NMR titration of BH3 peptides with wild-type γHV68 v-Bcl-2. The assay is classed as binding, murine γ-herpesvirus 68. To be noted: changes in 13C methyl-HSQC spectrum, 120 μM 13C,15N-labeled protein, peptide 40, 80, 160, 240, and 320 μM, 20 mM 2H-TRIS pH 7.8, 5 mM 2H-dithiothreitol, 303 K. The procedure: as §1, §2, §3

Another assay concerns Mcl-1. To be noted: ref [70],[71]; cited from earlier work. An excerpt:
In this property, the γHV68 and KSHV v-Bcl-2 proteins resemble cellular Mcl-1, which also fails to bind Bad BH3 peptide and is important for development of B cells, one of the cell types in which γHV68 establishes latency. One possible explanation for the lack of binding to the Bad BH3 peptide is that v-Bcl-2 binding to Bad is detrimental to the virus. Bad was recently found to be essential for assembly of a holoenzyme tha ...

Ends that are not written are not given here.

Regarding “GQVGRQLAIIGADINR [D83A mutant Bak peptide]”, the “fold reduction of affinity for Bcl-xL by D83A mutation” value in the assay on Bcl-xL is listed as “more than 120 fold”. For the same sequence, in assay [1], the “binding over the concentration range of the titration” value is listed as “no binding”. In assay [1] (changes in 13C methyl-HSQC spectrum, 120 μM 13C,15N-labeled protein, peptide 40, 80, 160, 240, and 320 μM, 20 mM 2H-TRIS pH 7.8, 5 mM 2H-dithiothreitol), this sequence came in with a Kd above 300 µM.

In the case of KKLSECLKRIGDELDS [Bax peptide], the “binding to KSHV v-Bcl-2” value in the assay with KSHV v-Bcl-2 is given as “interacts”. Moreover, the “exchange with γHV68 v-Bcl-2 on the NMR timescale” value in assay [1] (pH 7.8) was “slow exchange”.

On to “NLWAAQRYGRELRRMSDEFVSFKK [Bad BH3 peptide, Bad 25-mer ([…]), BH3 peptide from proapoptotic Bad]”, for which the “binding to KSHV v-Bcl-2” value in the assay with KSHV v-Bcl-2 is reported as “much lower affinity than is observed for Bcl-2 or Bcl-xL”. The Kd on Bcl-2 and Bcl-xL was 0.0006 to 0.015 µM; in assay [2] it was above 300 µM. In assay [1], the “binding over the concentration range of the titration” value is on record as “bound weakly”. Moreover, the “binding of Bad BH3 peptide to Mcl-1” value in the assay with Mcl-1 is given as “fails to bind”.

The values are drawn from article PMC1238745, “A Surface Groove Essential for Viral Bcl-2 Function During Chronic Infection In Vivo” (PLoS Pathogens, 2005).
